Columns and labels:
[1] = test system: wild house mice, Mus musculus; test: Field experiments with paired trap boxes: trap captures of wild mice; format: in vivo
[2] = test system: house mice, Mus musculus; test: Laboratory T-tube bioassay: behavioral responses of mice (first choice, time spent); format: in vivo; details: male mice
From the text: A laboratory experimental apparatus was constructed to test the behavioral responses of mice to the compositions described herein. The experimental design is depicted in FIG. 4 and includes three clear Plexiglas chambers: release chamber (1: 40 cm×20 cm×30 cm for placement of a mouse at the onset of a bioassay), and response chambers (3a and 3b: each 60 cm×30 cm×40 cm) interconnected by a Pyrex glass T-tube (2; stem: 65 cm long, side arms: 45 cm long, all 10 cm in diameter). Each response chamber housed a test stimulus in a Petri dish (4a, 4b; 3 cm diam.). For each replicate, a single mouse was deprived of food, but not water, for 4-6 h before being placed into chamber 1, which was illuminated by dim red light to facilitate observations of the mouse's position. The mouse was allowed to enter the stem of the T-tube (2) on its own accord in response to test stimuli, which were randomly assigned to response chamber 3a or 3b.
Both response chambers were fitted with a Petri dish (4a, 4b) containing a Whatman #1 filter paper disk (25 mm diam.) treated with a randomly assigned treatment stimulus or control stimulus. For each bioassay, a single mouse was tested and the following data were recorded: (1) the treatment or control chamber the mouse entered first with all four paws (“first-choice data”); and (2) the position of the mouse at each of 30 30-sec intervals after its first entry into the T-tube. Position data were then used to calculate the proportion of time a mouse spent in the treatment or control chamber (“time-spent data”).
Following each replicate, the chambers and T-tube were cleaned with a Percept® disinfectant detergent (Virox Technologies Inc. Mississaugua ON L5N 5M4, Canada) and wiped with 70% ethanol.
First-choice data and the time spent in a trap box quadrant were analyzed using a χ^2 test with Yates' correction for continuity (α=0.05) and the Student's t-test (α=0.05), respectively.
In Experiment 5, the laboratory experimental design of FIG. 4 was used to evaluate the responses of female mice to synthetic androstenone. For Experiment 5, the treatment stimulus consisted of filter paper treated with 4 μg of synthetic androstenone (see Experiments 1 and 2), and the control stimulus consisted of filter paper treated with the 50 μl of ether without androstenone.
In Experiment 6, the laboratory experimental design of FIG. 4 was used to evaluate the responses of male mice to blends of synthetic progesterone and estrogen. For Experiment 6, the treatment stimulus consisted of filter paper treated with a 4-μg blend of the synthetic hormones progesterone and estrogen formulated in 50 μl of ether at a ratio of 100:1 and a control stimulus which consisted of filter paper treated with 50 μl of ether.
In Experiments 9 to 11, the laboratory experimental design of FIG. 4 was used to evaluate the responses of male mice to synthetic progesterone and estrogen. For the Experiments, the treatment stimulus consisted of filter paper treated with a blend of the synthetic progesterone (50 ng) and estrogen (25 ng) (hereinafter “synthetic hormone blend”) (Experiment 9), progesterone alone (75 ng) (Experiment 10) or estrogen alone (75 ng) (Experiment 11) formulated in 50 μl ether. The control stimulus consisted of filter paper treated with 50 μl of ether for each of Experiments 9 to 11.
Experiment 12 used the laboratory experimental apparatus of FIG. 4 to test choices of female mice between filter paper treated with 75 ng of synthetic testosterone (the treatment stimulus) formulated in 50 μl of ether and control filter paper treated with 50 μl of ether. Experiment 13 was identical to Experiment 12 except that the treatment stimulus consisted of filter paper treated with 75 ng of synthetic androstenone.

[3] = Experiment 22, 750 ng of progesterone
[4] = Experiment 10, progesterone alone (75 ng)
[5] = Experiment 11, estrogen alone (75 ng)

Compound | captures of adult male mice vs control traps [1, 3] | captures of juvenile male mice vs control traps [1, 3] | first entry into treated chamber vs control chamber [2, 4] | responses of male mice compared with the blend [2, 4] | time spent in treated chamber vs control chamber [2, 4] | captures of wild mice vs control traps ([1]; Experiment 23, 750 ng of estradiol (estrogen)) | first entry into baited chamber vs control chamber [2, 5] | responsiveness of male mice compared with progesterone [2, 5] | time spent in treatment chamber vs control chamber [2, 5]
CC(=O)[C@H]1CC[C@H]2[C@@H]3CCC4=CC(=O)CC[C@]4(C)[C@H]3CC[C@]12C [progesterone] | significantly more | significantly more | did not significantly choose to first enter | less pronounced | significantly more time | – | – | – | –
C[C@]12CC[C@@H]3c4ccc(O)cc4CC[C@H]3[C@@H]1CC[C@@H]2O [estrogen, (8R,9S,13S,14S,17S)-13-methyl-6,7,8,9,11,12,14,15,16,17-decahydrocyclopenta[a]phenanthrene-3,17-diol] | – | – | – | – | – | as ineffective as control traps | significantly more often | more responsive to estrogen than to progesterone | significantly more time

— patent US11185077B2, “Attractants for rodents” (priority 2016, dated 2021)
